Biological target: T1, wtKIT (Homo sapiens, UniProt P10721)
T1 construct: 1888289AM in the reaction mixtures
Assay: HTRF biochemical assay, wtKIT (phosphorylation of a peptide substrate)
Conditions: Table 4
In short: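 HTRF read-out of FAM-peptide (1 µM) phosphorylation after anti-phosphotyrosine antibody addition and EDTA quench. Reaction: 5.0 nM wtKIT, 400 µM ATP, 10 mM Mn2+, HEPES pH 7.5, 1% DMSO, 3 h, 25 °C; optional enzyme-compound preincubation; enzyme level set for 10-20% conversion.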

T1 sequence (P10721 26-976): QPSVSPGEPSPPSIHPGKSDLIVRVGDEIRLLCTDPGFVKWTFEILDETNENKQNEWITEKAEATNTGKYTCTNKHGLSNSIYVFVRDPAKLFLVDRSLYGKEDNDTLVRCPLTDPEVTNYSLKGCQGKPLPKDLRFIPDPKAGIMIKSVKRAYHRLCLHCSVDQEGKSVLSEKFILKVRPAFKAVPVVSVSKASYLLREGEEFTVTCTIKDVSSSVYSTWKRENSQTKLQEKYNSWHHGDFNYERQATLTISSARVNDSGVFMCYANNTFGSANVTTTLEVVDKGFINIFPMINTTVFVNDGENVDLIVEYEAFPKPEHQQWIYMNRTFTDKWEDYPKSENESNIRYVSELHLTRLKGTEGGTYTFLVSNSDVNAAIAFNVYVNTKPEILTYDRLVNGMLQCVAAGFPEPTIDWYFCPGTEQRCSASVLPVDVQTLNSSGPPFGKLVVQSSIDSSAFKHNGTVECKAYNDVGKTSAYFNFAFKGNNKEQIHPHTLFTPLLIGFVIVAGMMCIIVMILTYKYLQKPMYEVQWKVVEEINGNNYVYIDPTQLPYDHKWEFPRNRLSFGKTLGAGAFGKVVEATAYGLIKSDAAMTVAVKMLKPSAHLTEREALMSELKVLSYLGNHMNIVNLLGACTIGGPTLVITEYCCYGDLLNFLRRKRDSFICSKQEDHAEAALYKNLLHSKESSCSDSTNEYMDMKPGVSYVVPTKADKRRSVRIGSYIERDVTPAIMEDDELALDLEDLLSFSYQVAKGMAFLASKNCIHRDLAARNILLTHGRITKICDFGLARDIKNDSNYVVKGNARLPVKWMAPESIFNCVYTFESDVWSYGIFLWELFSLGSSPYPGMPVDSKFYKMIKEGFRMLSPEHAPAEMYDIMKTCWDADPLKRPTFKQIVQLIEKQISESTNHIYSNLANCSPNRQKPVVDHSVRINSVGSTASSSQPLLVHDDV

Cc1ccc(-c2noc([C@H]3C[C@@H]3F)n2)cc1NC(=O)c1cnc2cc(COC[C@@H](O)C(F)F)ccn12 [Compound I-500, 7-(((R)-3,3-difluoro-2-hydroxypropoxy)methyl)-N-(5-(5-((1R,2S)-2-fluorocyclopropyl)-1,2,4-oxadiazol-3-yl)-2-methylphenyl)imidazo[1,2-a]pyridine-3-carboxamide] and Cc1ccc(-c2noc([C@H]3C[C@@H]3F)n2)cc1NC(=O)c1cnc2cc(COCCS(C)(=O)=O)ccn12 [Compound I-454, N-[5-[5-[(1R,2S)-2-fluorocyclopropyl]-1,2,4-oxadiazol-3-yl]-2-methyl-phenyl]-7-(2-methylsulfonylethoxymethyl)imidazo[1,2-a]pyridine-3-carboxamide] cannot be ordered by IC50: ≤ 50 nM for the first, ≤ 50 nM for the second.

Cc1ccc(-c2noc([C@H]3C[C@@H]3F)n2)cc1NC(=O)c1cnc2cc(CCOCC(C)(C)O)ccn12 [Compound I-467, N-(5-(5-((1R,2S)-2-fluorocyclopropyl)-1,2,4-oxadiazol-3-yl)-2-methylphenyl)-7-(2-(2-hydroxy-2-methylpropoxy)ethyl)imidazo[1,2-a]pyridine-3-carboxamide] and Cc1ccc(-c2noc([C@H]3C[C@@H]3F)n2)cc1NC(=O)c1cnc2cc(C(C)OCCO)ccn12 (relative stereo) [Compound I-451, N-[5-[5-[(1R,2S)-2-fluorocyclopropyl]-1,2,4-oxadiazol-3-yl]-2-methyl-phenyl]-7-[(1R*)-1-(2-hydroxyethoxy)ethyl]imidazo[1,2-a]pyridine-3-carboxamide] cannot be ordered by IC50: ≤ 50 nM for the first, ≤ 50 nM for the second.

Cc1ccc(-c2ncon2)cc1NC(=O)c1cnn2ccccc12 [Compound I-640, N-(2-methyl-5-(1,2,4-oxadiazol-3-yl)phenyl)pyrazolo[1,5-a]pyridine-3-carboxamide] and Cc1ccc(-c2noc([C@H]3C[C@@H]3F)n2)cc1NC(=O)c1cnn2ccc(F)cc12 [Compound I-496, 5-fluoro-N-[5-[5-[(1R,2S)-2-fluorocyclopropyl]-1,2,4-oxadiazol-3-yl]-2-methylphenyl]pyrazolo[1,5-a]pyridine-3-carboxamide] cannot be ordered by IC50: 50 to 500 nM for the first, ≤ 50 nM for the second.

Cc1ccc(-c2noc([C@H]3C[C@@H]3F)n2)cc1NC(=O)c1cnc2cc(OCCCN3CCCC3)ccn12 [Compound I-630, N-(5-(5-((1R,2S)-2-fluorocyclopropyl)-1,2,4-oxadiazol-3-yl)-2-methylphenyl)-7-(3-(pyrrolidin-1-yl)propoxy)imidazo[1,2-a]pyridine-3-carboxamide] and COc1ccn2c(C(=O)Nc3cc(-c4noc(N5CC(F)(F)C5)n4)ccc3C)cnc2c1 [Compound I-603, N-(5-(5-(3,3-difluoroazetidin-1-yl)-1,2,4-oxadiazol-3-yl)-2-methylphenyl)-7-methoxyimidazo[1,2-a]pyridine-3-carboxamide] cannot be ordered by IC50: ≤ 50 nM for the first, ≤ 50 nM for the second.

Cc1ccc(-c2noc(CC(O)C(C)C)n2)cc1NC(=O)c1cnc2ccccn12 (stereo not shown) [Compound I-525, N-(5-(5-(2-hydroxy-3-methylbutyl)-1,2,4-oxadiazol-3-yl)-2-methylphenyl)imidazo[1,2-a]pyridine-3-carboxamide] and CCc1nc(-c2ccc(C)c(NC(=O)c3cnc4cc(F)ccn34)c2)no1 [Compound I-739] cannot be ordered by IC50: ≤ 50 nM for the first, ≤ 50 nM for the second.

Cc1nc(-c2ccc(C)c(NC(=O)c3cnc4cc(-c5ncsc5CO)ccn34)c2)no1 [Compound I-595, 7-(5-(hydroxymethyl)thiazol-4-yl)-N-(2-methyl-5-(5-methyl-1,2,4-oxadiazol-3-yl)phenyl)imidazo[1,2-a]pyridine-3-carboxamide] and COc1ccn2c(C(=O)Nc3cc(-c4noc(C)n4)ccc3C)cnc2c1 [Compound I-533, 7-methoxy-N-(2-methyl-5-(5-methyl-1,2,4-oxadiazol-3-yl)phenyl)imidazo[1,2-a]pyridine-3-carboxamide] cannot be ordered by IC50: ≤ 50 nM for the first, ≤ 50 nM for the second.

Cc1ccc(-c2ncon2)cc1NC(=O)c1cnc2cc(-c3csc(CO)n3)ccn12 [Compound I-685] and Cc1ccc(-c2ncon2)cc1NC(=O)c1cnc2cc(-c3ccn(C)n3)ccn12 [Compound I-684] cannot be ordered by IC50: ≤ 50 nM for the first, ≤ 50 nM for the second.

Cc1ccc(-c2noc([C@H]3C[C@@H]3F)n2)cc1NC(=O)c1cnc2cc3c(cn12)COC3C (single isomer, unassigned) [Compound I-470, (6S*)—N-[5-[5-[(1R,2S)-2-fluorocyclopropyl]-1,2,4-oxadiazol-3-yl]-2-methyl-phenyl]-6-methyl-5-oxa-1,10-diazatricyclo[7.3.0.03,7]dodeca-2,7,9,11-tetraene-12-carboxamide] and Cc1ccc(-c2noc([C@H]3C[C@@H]3F)n2)cc1NC(=O)c1cnn2cccc(F)c12 [Compound I-487] cannot be ordered by IC50: ≤ 50 nM for the first, 50 to 500 nM for the second.

First: Cc1nc(-c2ccc(C)c(NC(=O)c3cnc4cc(C5CCNC5=O)ccn34)c2)no1 (stereo not shown) [Compound I-448]
Second: Cc1ccn2c(C(=O)Nc3cc(-c4noc(-c5ccnnc5)n4)ccc3C)cnc2c1 [Compound I-546]
The IC50 of the first is higher: 500 to 5000 nM for the first, 50 to 500 nM for the second.

First: COc1ccn2c(C(=O)Nc3cc(-c4noc(-c5ccccc5)n4)ccc3C)cnc2c1 [Compound I-743]
Second: Cc1ccc(-c2noc(-c3ccccn3)n2)cc1NC(=O)c1cnc2cc(COCC(C)(C)O)ccn12 [Compound I-573]
The IC50 of the first is higher: 500 to 5000 nM for the first, 50 to 500 nM for the second. The second is the more potent here.

Cc1ccn2c(C(=O)Nc3cc(-c4noc(CCC(C)(O)C(F)(F)F)n4)ccc3C)cnc2c1 (single isomer, unassigned) [Compound I-515] and COCC(O)c1nc(-c2ccc(C)c(NC(=O)c3cnc4cc(C)ccn34)c2)no1 (stereo not shown) [Compound I-608] cannot be ordered by IC50: ≤ 50 nM for the first, 50 to 500 nM for the second.

CCc1nc(-c2ccc(C)c(NC(=O)c3cnc4cc(COC)ccn34)c2)no1 [Compound I-734] and Cc1ccc(-c2noc(CC3COC3)n2)cc1NC(=O)c1cnc2cc(COCC3(O)CC3)ccn12 [Compound I-637] cannot be ordered by IC50: ≤ 50 nM for the first, 50 to 500 nM for the second.

Cc1ccc(-c2noc(C3CC(NC(=O)OC(C)(C)C)C3)n2)cc1NC(=O)c1cnc2cc(Cl)ccn12 (stereo not shown) [Compound I-747] and COc1ccn2c(C(=O)Nc3cc(-c4noc(CC5CCCO5)n4)ccc3C)cnc2c1 (stereo not shown) [Compound I-582, 7-methoxy-N-(2-methyl-5-(5-((tetrahydrofuran-2-yl)methyl)-1,2,4-oxadiazol-3-yl)phenyl)imidazo[1,2-a]pyridine-3-carboxamide] cannot be ordered by IC50: 50 to 500 nM for the first, ≤ 50 nM for the second.

CCc1nc(-c2ccc(C)c(NC(=O)c3cnn4cc(-c5ccn(C)n5)ccc34)c2)no1 [Compound I-722] and Cc1ccc(-c2noc(C[C@H](O)C(F)F)n2)cc1NC(=O)c1cnc2cc(OCCCCO)ccn12 [Compound I-568, (S)—N-(5-(5-(3,3-difluoro-2-hydroxypropyl)-1,2,4-oxadiazol-3-yl)-2-methylphenyl)-7-(4-hydroxybutoxy)imidazo[1,2-a]pyridine-3-carboxamide] cannot be ordered by IC50: ≤ 50 nM for the first, ≤ 50 nM for the second.

COc1cc2ncc(C(=O)Nc3cc(-c4noc(N5CC(F)(F)C5)n4)ccc3C)n2cc1F [Compound I-611] and Cc1ccc(-c2ncon2)cc1NC(=O)c1cnc2cc(N3CCCCC3)ccn12 [Compound I-712] cannot be ordered by IC50: ≤ 50 nM for the first, 50 to 500 nM for the second.

With Cc1ccc(-c2noc(C[C@H](O)C(F)F)n2)cc1NC(=O)c1cnc2cc(COCc3c[nH]nn3)ccn12 [Compound I-575, (S)-7-(((1H-1,2,3-triazol-4-yl)methoxy)methyl)-N-(5-(5-(3,3-difluoro-2-hydroxypropyl)-1,2,4-oxadiazol-3-yl)-2-methylphenyl)imidazo[1,2-a]pyridine-3-carboxamide] the IC50 was ≤ 50 nM.

From US20240254119A1 (THIRD HARMONIC BIO, INC., priority 2022, published 2024)
